Experimental data: US20240366589A1, “NHE3-BINDING COMPOUNDS AND METHODS FOR INHIBITING PHOSPHATE TRANSPORT” (Ardelyx, Inc., priority 2013, published 2024)
Entries after “also recorded” stand apart in the source; their conditions may differ. Each block holds one compound with its values, some of them ahead of it.

Assays:
[1] = system: dietary salt-induced, partial renal ablation model of CKD; test: Dietary salt-induced, partial renal ablation model of CKD in nephrectomized rats; assay type: in vivo, rat
Protocol: The effects of Cpd 002 (from Table E4, as the dihydrochloride salt) were tested in a dietary salt-induced, partial renal ablation model of CKD. The study design is illustrated in FIG. 11A (12 rats per group).

[2] = system: phosphorus and calcium levels in the urine of rats; test: Urinary excretion of phosphate and calcium in rats (16 h overnight urine); assay type: in vivo, rat
[3] = system: uremic rat model of CKD featuring vascular calcification; test: Rat model of uremia-associated vascular calcification (5/6 nephrectomy, calcitriol, 0.9% P diet); assay type: in vivo
From the text: Chronic kidney disease (CKD) has multiple pathogenic mechanisms, and advanced CKD is often characterized by disordered mineral metabolism (e.g., hyperphosphatemia, hypercalcemia) and vascular calcification. Studies were thus performed to test the effectiveness of the dihydrochloride salt of Cpd 002 (from Table E4, as the dihydrochloride salt) in a uremic rat model of CKD featuring vascular calcification. This model is characterized by renal insufficiency and regular active Vitamin D3 administration to promote hyperphosphatemia and vascular calcification (see Lopez et al., J. Am. Soc. Nephrol. 17:795-804, 2006). The study utilized Spraque-Dawley rats treated as follows: 5/6th nephrectomy by excision; regular calcitriol administration (active vitamin D3) 80 ng/kg i.p. 3/week; and fed a purified 0.9% P diet (inorganic phosphorus).
Rats were stratified into two experimental groups by serum creatinine levels of 0.8 to 1.5 mg/dl and body weight, fed drug-in-chow with powdered vehicle diet or the same diet with Cpd 002 (0.065 mg/g chow) mixed-in, and monitored for weekly body weight and selected serum parameters, daily clinical observations, and endpoint calcification. The study design is illustrated in FIG. 2.
Selected experimental groups were fed vehicle (n=12) or Cpd 002 (n=12) at enrollment (day 0).

Rat NHE3 [4] = target: T1, Rat NHE3 (Rattus norvegicus, UniProt P26433); test: Cell-based NHE3 activity under persistent conditions (60 min incubation, washout), rat NHE3; details: Table E5; 40 min after compound washout; dihydrochloride salt
T1 construct: expressed in transfected cells; host or cells: Opossum kidney (OK) cells (ATCC), electroporation
Protocol: Cell-based activity of NHE3 Activity under ‘Persistent’ Conditions. The ability of compounds to inhibit Rat NHE3-mediated Na^+-dependent H^+ antiport after application and washout was measured using a modification of the pH sensitive dye method described above. Opossum kidney (OK) cells were obtained from the ATCC and propagated per their instructions. The rat NHE3 gene was introduced into OK cells via electroporation, and cells were seeded into 96 well plates and grown overnight. Medium was aspirated from the wells, cells were washed twice with NaCl-HEPES buffer (100 mM NaCl, 50 mM HEPES, 10 mM glucose, 5 mM KCl, 2 mM CaCl2, 1 mM MgCl2, pH 7.4), then overlayed with NaCl-HEPES buffer containing 0-30 μM test compound.
After a 60 min incubation, the test drug containing buffer was aspirated from the cells, cells were washed twice with NaCl-HEPES buffer without drug, then incubated for 30 min at room temperature with NH4Cl-HEPES buffer (20 mM NH4Cl, 80 mM NaCl, 50 mM HEPES, 5 mM KCl, 2 mM CaCl2, 1 mM MgCl2, pH 7.4) containing 5 μM BCECF-AM. Cells were washed twice with Ammonium free, Na^+-free HEPES (100 mM choline, 50 mM HEPES, 10 mM glucose, 5 mM KCl, 2 mM CaCl2, 1 mM MgCl2, pH 7.4) and incubated in the same buffer for 10 minutes at room temperature to lower intracellular pH. […]

Rat NHE3 [5] = target: T1, Rat NHE3; test: Cell-based NHE3 activity under prompt conditions (OK cells, BCECF pH recovery), rat NHE3; details: Table E5; 001 free base, 002-005 dihydrochloride salt
How it was run: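 Opossum kidney cells transfected with rat or human NHE3 underwent ammonium prepulse (20 mM NH4Cl, pH 7.4, 30 min) then 10 min in Na+-free buffer, room temperature.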

[6] = relative to vehicle-only control, 0.1-3.0 mg/kg, 16 h urine
[7] = endpoint day 27, 0.065 mg/g chow, vs vehicle
[8] = endpoint, 0.065 mg/g chow, vs vehicle
[9] = organ weight/body weight, 0.065 mg/g chow, vs vehicle

T1 sequence (P26433 29-831): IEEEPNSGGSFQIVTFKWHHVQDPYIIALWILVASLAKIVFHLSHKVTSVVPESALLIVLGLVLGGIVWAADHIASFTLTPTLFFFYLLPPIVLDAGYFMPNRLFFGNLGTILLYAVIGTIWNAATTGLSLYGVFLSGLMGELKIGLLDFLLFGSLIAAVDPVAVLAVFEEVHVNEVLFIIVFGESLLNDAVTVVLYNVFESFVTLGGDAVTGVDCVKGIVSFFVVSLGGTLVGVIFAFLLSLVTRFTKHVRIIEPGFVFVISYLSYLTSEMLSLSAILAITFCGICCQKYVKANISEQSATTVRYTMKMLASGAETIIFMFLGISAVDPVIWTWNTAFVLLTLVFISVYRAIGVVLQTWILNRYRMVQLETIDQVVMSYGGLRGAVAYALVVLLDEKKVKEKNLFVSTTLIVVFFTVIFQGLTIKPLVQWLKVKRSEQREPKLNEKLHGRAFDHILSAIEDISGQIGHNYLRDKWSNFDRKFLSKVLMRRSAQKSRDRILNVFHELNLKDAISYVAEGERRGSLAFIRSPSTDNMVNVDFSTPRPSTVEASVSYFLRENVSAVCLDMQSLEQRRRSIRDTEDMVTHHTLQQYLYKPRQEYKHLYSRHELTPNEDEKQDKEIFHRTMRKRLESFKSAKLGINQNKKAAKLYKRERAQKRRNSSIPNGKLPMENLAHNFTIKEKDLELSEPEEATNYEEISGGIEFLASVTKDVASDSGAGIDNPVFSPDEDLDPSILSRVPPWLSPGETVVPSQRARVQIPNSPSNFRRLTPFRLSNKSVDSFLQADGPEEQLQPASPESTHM

SMILES: CN1Cc2c(Cl)cc(Cl)cc2[C@H](c2cccc(S(=O)(=O)NCCOCCOCCNC(=O)NCCCCNC(=O)NCCOCCOCCNS(=O)(=O)c3cccc([C@@H]4CN(C)Cc5c(Cl)cc(Cl)cc54)c3)c2)C1 [Cpd 002]
- phosphorus urinary excretion ([1]; FIG. 11B): significantly reduced
- blood pressure ([1]; dihydrochloride salt): improved
- albuminuria ([1]; rat, in vivo): improved
- fluid overload ([1]; rat, in vivo): improved
- heart hypertrophy ([1]; rat, in vivo): improved
- kidney hypertrophy ([1]; rat, in vivo): improved
- urine phosphorus mass ([2]; increasing dosages, relative to 48 mg/kg Renvela): significantly reduced
- urine calcium mass [2, 6]: reduced
- urine phosphorus mass [2, 6]: reduced
- endpoint plasma aldosterone ([3]; 0.065 mg/g chow, vs vehicle): aldosterone increase
- plasma creatinine ([3]; endpoint day 27, 0.065 mg/g chow, dihydrochloride salt, vs vehicle): reduced plasma creatinine
- plasma FGF-23 [3, 7]: reduced plasma FGF-23
- plasma phosphorus [3, 7]: reduced plasma phosphorus; also recorded: anti-hyperphosphatemic effects
- calcium and phosphorus in the stomach (soft tissue calcification) [3, 8]: reduced calcium and phosphorus in the stomach
- vascular calcification as aortic mineral content [3, 8]: reduced vascular calcification; also recorded: reduce associated vascular calcification
- endpoint heart weight (heart hypertrophy) [3, 9]: lessened; also recorded: reduce both heart hypertrophy and renal hypertrophy
- endpoint kidney remnant weight (renal hypertrophy) [3, 9]: lessened; also recorded: reduce both heart hypertrophy and renal hypertrophy
- moribundity ([3]; treatment group vs vehicle): decreased moribundity
- mortality outcome ([3]; treatment group vs vehicle): trend toward improved mortality outcome
- Rat NHE3 pIC50 Persistent (Rat NHE3 [4]): 8.4
- Rat NHE3 pIC50 Prompt (Rat NHE3 [5]): 8

- Rat NHE3 pIC50 Persistent (Rat NHE3 [4]): 5.6
- Rat NHE3 pIC50 Prompt (Rat NHE3 [5]): 7.3
SMILES: CN1Cc2c(Cl)cc(Cl)cc2[C@@H](c2cccc(S(=O)(=O)NCCOCCOCCNC(=O)NCCCCNC(=O)NCCOCCOCCNS(=O)(=O)c3cccc([C@H]4CN(C)Cc5c(Cl)cc(Cl)cc54)c3)c2)C1 [Cpd 004]
